Experimental findings from US3940441A (priority 1974, dated 1976) are described below.

The test system of assay [1] is Clostridium welchii. In words: microbe, parasite or virus in culture. It counts as cell-based.
In assay [2] the test system is Eberthella typhi. In words: microbe, parasite or virus in culture. Conditions: for MBC: read-out: Minimum Effective Concentration, Bactericidal; for MIC: read-out: Minimum Effective Concentration, Bacteriostatic. It counts as cell-based.
Assay [3] deals with Staphylococcus aureus. The experiment in a line: microbe, parasite or virus in culture. It counts as cell-based. The conditions noted are these: for MBC / MIC: Staphylococcus aureus; for MBC: read-out: Minimum Effective Concentration, Bactericidal.
The test system of assay [4] is Pseudomonas aeruginosa. In words: microbe, parasite or virus in culture. It counts as cell-based. Conditions: for MBC / MIC: Pseudomonas aeruginosa; for MBC: read-out: Minimum Effective Concentration, Bactericidal.
Assay [5] has as its system Streptococcus sp. The experiment in a line: microbe, parasite or virus in culture. Conditions: for MBC / MIC: Streptococcus; for MBC: read-out: Minimum Effective Concentration, Bactericidal; for MIC: read-out: Minimum Effective Concentration, Bacteriostatic. It is filed as cell-based.
For assay [6], the system named is Endamoeba criceti. The experiment in a line: chemotherapeutic evaluation in vivo in hamsters infected with Endamoeba criceti (amebacidal activity). On the set-up: species or system hamster. Conditions: oral.
Assay [7] has as its system Proteus vulgaris. In words: microbe, parasite or virus in culture. It is filed as cell-based. Conditions: read-out: Minimum Inhibitory Concentration.
The test system of assay [8] is Escherichia coli. In words: microbe, parasite or virus in culture. It is filed as cell-based. The conditions noted are these: read-out: Minimum Inhibitory Concentration.
[9] abbreviates: Clostridium, read-out: Minimum Effective Concentration, Bactericidal.
Where [10] appears, read: Clostridium, read-out: Minimum Effective Concentration, Bacteriostatic.
The mark [11] stands for this setting: read-out: Minimum Effective Concentration, Bacteriostatic.
Setting [12] is: read-out: Minimum Inhibitory Concentration.

Values after ≈ are worked out from the molar mass of the structure shown. Where two headings read alike, the source gives them in different places.

For `O=C(C(Cl)Cl)N(CCN(Cc1ccc(Oc2ccc([N+](=O)[O-])cc2)cc1)C(=O)C(Cl)Cl)Cc1ccc(Oc2ccc([N+](=O)[O-])cc2)cc1` [Example 13A, N,N'-bis(dichloroacetyl)-N,N'-bis[4-(4'-nitrophenoxy)benzyl]-1,2-ethanediamine], the MBC in assay [1] (setting [9]) was above 1000 µg/mL; in assay [2], 750 µg/mL (≈ 1020 µM); in assay [3], above 1000 µg/mL; in assay [4], 750 µg/mL (≈ 1020 µM). Further, the MIC in assay [1] (setting [10]), in assay [2], in assay [3] (setting [11]) and in assay [4] (setting [11]) was 750 µg/mL (≈ 1020 µM) throughout.

As to “2,2'-Dimethylbis{2-[4-(4'-nitrophenoxy)benzylamino]-ethyl}amine and 1,2'-Dimethylbis{2-[4-(4'-nitrophenoxy)benzylamino]ethyl}amine (Mixture of Isomers) [Example 9A]”, the “Minimum Effective Concentration, Bactericidal” value in assay [1] is listed as 0.005 mg./cc; in assay [2] it was 0.25 mg./cc; in assay [3], 0.025 mg./cc; in assay [4] it was above 1.0 mg./cc; in assay [5], 0.01 mg./cc. The “Minimum Effective Concentration, Bacteriostatic” value was found to be 0.001 mg./cc in assay [1]; 0.1 mg./cc in assay [2]; 0.005 mg./cc in assay [3]; 0.5 mg./cc in assay [4]; 0.0075 mg./cc in assay [5].

As for `O=[N+]([O-])c1ccc(Oc2ccc(C=NCCCCCCCCN=Cc3ccc(Oc4ccc([N+](=O)[O-])cc4)cc3)cc2)cc1` [Example 2, N,N'-bis[4-(4'-nitrophenoxy)benzal]-1,8-octanediamine], the “animals cleared of amebic infection” value in assay [6] (12.5 mg./kg./day) was 1 out of 5; in assay [6] (25 mg./kg./day) it was 2 out of 5; in assay [6] (50 mg./kg./day), 2 out of 5.

Turning to `Nc1ccc(Oc2ccc(CNCCCCCCCCNCc3ccc(Oc4ccc(N)cc4)cc3)cc2)cc1` [Example 14A, N,N'-bis[4-(4'-aminophenoxy)benzyl]-1,8-octanediamine], the MBC is 100 µg/mL (≈ 186 µM) in assay [1] (Clostridium; read-out: Minimum Effective Concentration, Bactericidal); 75 µg/mL (≈ 139 µM) in assay [2]; 25 µg/mL (≈ 46.4 µM) in assay [3]; 1000 µg/mL (≈ 1860 µM) in assay [4]; 50 µg/mL (≈ 92.8 µM) in assay [5]. Besides, the MIC was 100 µg/mL (≈ 186 µM) in assay [1] (Clostridium; read-out: Minimum Effective Concentration, Bacteriostatic); 50 µg/mL (≈ 92.8 µM) in assay [2]; 7.5 µg/mL (≈ 13.9 µM) in assay [3] (setting [11]); 750 µg/mL (≈ 1390 µM) in assay [4] (setting [11]); 25 µg/mL (≈ 46.4 µM) in assay [5].

For `O=[N+]([O-])c1ccc(Oc2ccc(C=NCCN=Cc3ccc(Oc4ccc([N+](=O)[O-])cc4)cc3)cc2)cc1` [Example 3, N,N'-bis[4-(4'-nitrophenoxy)benzal]-1,2-ethanediamine], in assay [6] (100 mg./kg./day), the “animals cleared of amebic infection” value is 2 out of 5.

With `O=[N+]([O-])c1ccc(Oc2ccc(CNCCCCCCCCNCc3ccc(Oc4ccc([N+](=O)[O-])cc4)cc3)cc2)cc1` [Example 6A, N,N'-bis[4-(4'-nitrophenoxy)benzyl]-1,8-octanediamine], the MBC in assay [1] (setting [9]) is 75 µg/mL (≈ 125 µM); in assay [2], 25 µg/mL (≈ 41.8 µM); in assay [3] it was 5 µg/mL (≈ 8.35 µM); in assay [4] it was 1000 µg/mL (≈ 1670 µM). Further, the MIC stood at 50 µg/mL (≈ 83.5 µM) in assay [1] (setting [10]), 7.5 µg/mL (≈ 12.5 µM) in assay [2], 0.5 µg/mL (≈ 0.835 µM) in assay [3] (setting [11]) and 750 µg/mL (≈ 1250 µM) in assay [4] (setting [11]).

`CN(CCCCCCN(C)Cc1ccc(Oc2ccc([N+](=O)[O-])cc2)cc1)Cc1ccc(Oc2ccc([N+](=O)[O-])cc2)cc1` [Example 11A, N,N'-Dimethyl-N,N'-bis[4-(4'-nitrophenoxy)-benzyl]-1,6-hexanediamine]: the MBC in assay [1] (setting [9]) is 500 µg/mL (≈ 835 µM); in assay [2] it was 750 µg/mL (≈ 1250 µM); in assay [3], 250 µg/mL (≈ 418 µM); in assay [5], 5 µg/mL (≈ 8.35 µM). Also, the MIC in assay [1] (setting [10]) is 250 µg/mL (≈ 418 µM); in assay [2], 500 µg/mL (≈ 835 µM); in assay [3] (setting [11]), 5 µg/mL (≈ 8.35 µM); in assay [5] it was 5 µg/mL (≈ 8.35 µM).

Take `O=[N+]([O-])c1ccc(Oc2ccc(CNCCCCCCNCc3ccc(Oc4ccc([N+](=O)[O-])cc4)cc3)cc2)cc1` [Example 7, N,N'-bis[4-(4'-nitrophenoxy)benzyl]-1,6-hexanediamine]: the MBC in assay [1] (setting [9]) was determined as 25 µg/mL (≈ 43.8 µM); in assay [2] it was 50 µg/mL (≈ 87.6 µM); in assay [3], 7.5 µg/mL (≈ 13.1 µM); in assay [4], 500 µg/mL (≈ 876 µM). Further, the MIC in assay [1] (setting [10]) turned out to be 25 µg/mL (≈ 43.8 µM); in assay [2] it was 7.5 µg/mL (≈ 13.1 µM); in assay [3] (setting [11]), 1 µg/mL (≈ 1.75 µM); in assay [4] (setting [11]), 250 µg/mL (≈ 438 µM).

As to `O=[N+]([O-])c1ccc(Oc2ccc(CNCCNCc3ccc(Oc4ccc([N+](=O)[O-])cc4)cc3)cc2)cc1` [Example 8, N,N'-bis[4-(4'-nitrophenoxy)benzyl]-1,2-ethanediamine], the MBC in assay [1] (setting [9]) is 1 µg/mL (≈ 1.94 µM); in assay [2], above 100 µg/mL; in assay [3] it was 50 µg/mL (≈ 97.2 µM); in assay [4], above 100 µg/mL. The MIC in assay [1] (setting [10]) was determined as 0.5 µg/mL (≈ 0.972 µM); in assay [2], 75 µg/mL (≈ 146 µM); in assay [3] (setting [11]) it was 10 µg/mL (≈ 19.4 µM); in assay [4] (setting [11]), 75 µg/mL (≈ 146 µM).

`O=[N+]([O-])c1ccc(Oc2ccc(CNC[C@H]3CC[C@H](CNCc4ccc(Oc5ccc([N+](=O)[O-])cc5)cc4)CC3)cc2)cc1` [Example 10A, Trans-1,4-bis[4-(4'-nitrophenoxy)benzylaminomethyl]cyclohexane]: the MBC turned out to be 100 µg/mL (≈ 168 µM) in assay [1] (setting [9]), 75 µg/mL (≈ 126 µM) in assay [2], 50 µg/mL (≈ 83.8 µM) in assay [3] and 25 µg/mL (≈ 41.9 µM) in assay [5]. For the same compound, the MIC was 100 µg/mL (≈ 168 µM) in assay [1] (setting [10]), 50 µg/mL (≈ 83.8 µM) in assay [2], 10 µg/mL (≈ 16.8 µM) in assay [3] (setting [11]) and 25 µg/mL (≈ 41.9 µM) in assay [5].

Regarding `Cc1c(C)c(CCNCc2ccc(Oc3ccc([N+](=O)[O-])cc3)cc2)c(C)c(C)c1CCNCc1ccc(Oc2ccc([N+](=O)[O-])cc2)cc1` [Example 16A, Bis{2-[4-(4'-nitrophenoxy)benzylamino]ethyl}-2,3,5,6-tetramethylbenzene], the MBC in assay [1] (setting [9]) came to 250 µg/mL (≈ 370 µM); in assay [2], 750 µg/mL (≈ 1110 µM); in assay [3], 75 µg/mL (≈ 111 µM); in assay [5] it was 25 µg/mL (≈ 37 µM). Further, the MIC in assay [1] (setting [10]) was determined as 100 µg/mL (≈ 148 µM); in assay [2], 100 µg/mL (≈ 148 µM); in assay [3] (setting [11]), 7.5 µg/mL (≈ 11.1 µM); in assay [5] it was 2.5 µg/mL (≈ 3.7 µM).

`O=C(Nc1ccccc1)N(CCCCCCN(Cc1ccc(Oc2ccc([N+](=O)[O-])cc2)cc1)C(=O)Nc1ccccc1)Cc1ccc(Oc2ccc([N+](=O)[O-])cc2)cc1` [Example 12A, N,N'-bis[4-(4'-nitrophenoxy)benzyl]-N,N'-bis(phenylcarbamyl)-1,6-hexanediamine]: the MBC in assay [1] (setting [9]) is 100 µg/mL (≈ 124 µM); in assay [2], above 100 µg/mL; in assay [3], 75 µg/mL (≈ 92.7 µM); in assay [4] it was above 100 µg/mL. For the same compound, the MIC in assay [1] (setting [10]), in assay [2], in assay [3] (setting [11]) and in assay [4] (setting [11]) was 75 µg/mL (≈ 92.7 µM) in each case.

For `O=[N+]([O-])c1ccc(Oc2ccc(CNCCCNCCCNCc3ccc(Oc4ccc([N+](=O)[O-])cc4)cc3)cc2)cc1` [Example 9B, Bis{3-[4-(4'-nitrophenoxy)benzylamino]propyl}amine], the MIC in assay [7] stood at 125 µg/mL (≈ 213 µM); in assay [3] (setting [12]), 0.05 µg/mL (≈ 0.0854 µM); in assay [8], 0.2 µg/mL (≈ 0.341 µM); in assay [4] (setting [12]), 3.1 µg/mL (≈ 5.29 µM).

For the compound `O=[N+]([O-])c1ccc(Oc2ccc(C=NCCCCCCN=Cc3ccc(Oc4ccc([N+](=O)[O-])cc4)cc3)cc2)cc1` [Example 1A, N,N'-bis[4-(4'-nitrophenoxy)benzal]-1,6-hexanediamine], the “animals cleared of amebic infection” value in assay [6] (25 mg./kg./day) is given as 4 out of 10; in assay [6] (50 mg./kg./day) it was 6 out of 10; in assay [6] (100 mg./kg./day), 3 out of 5.
